Assay results as given in US20220168427A1 (Ranok Therapeutics (Hangzhou) Co. Ltd., priority 2019, published 2022).

Columns and labels:
[1] = molecular target: HSP90α (Homo sapiens, UniProt P07900); assay: HSP90α Binding Fluorescent Polarization (FP) Assay; settings: competition with FITC-geldanamycin; read-out: HSP90 Binding Potency
Method: HSP90α Binding Fluorescent Polarization (FP) Assay
A master mix was prepared with assay buffer, BSA and FITC-geldanamycin. In a 96-well plate, a serial 3-fold dilution of each compound was prepared ranging from 40 μM down until 2.0 nM. Also in a 96-well plate, recombinant HSP90α protein was diluted to 28 μg/ml. Then, in a 384-well plate, 10 μl of master mix and 5 μl of compound dilution were added per well to duplicate wells and mixed by brief shaking. Then 5 μl of diluted HSP90α protein was added per well, mixed by brief shaking, incubated at 25° C. for 30, 60 and 120 min and fluorescence was measured on an EnVision Plate Reader. Background-subtracted mP values were calculated from EnVision raw data and a four-parameter “log[inhibitor] vs. response” curve was fitted using GraphPad Prism 7.0.

[2] = tested on: MV4-11 cells; assay: MV4-11 Cell Cytotoxicity Assay; format: cell-based, human; settings: CCK-8; for IC50 at 72 h: human, MV4-11 cells
Text: % Inhibition=100−(D−B)/(S−B)*100%.
S: The absorbance of the maximum (cells with DMSO)
B: The absorbance of the minimum (medium with DMSO)

[3] = molecular target: T1, BRD4 (BD1+BD2) (Homo sapiens, UniProt O60885); settings: read-out: BRD4 Binding Potency
T1 construct: 1.8 μg/ml recombinant BRD4 (BD1+BD2 domains) protein
Method: A master mix was prepared with assay buffer, 1.8 μg/ml recombinant BRD4 (BD1+BD2 domains) protein, and 200-fold dilutions of Tb-labeled donor and dye-labeled acceptor. 40-fold dilutions of acetylated and non-acetylated ligands were prepared in 1×BRD TR-FRET assay buffer. Also, a serial 3-fold dilution of each compound was prepared ranging from 40 μM down until 2.0 nM. In a 384-well plate, 5 μl diluted ligand and 5 μl of compound dilution were added per well to duplicate wells and mixed by brief shaking. Then 10 μl of master mix was added per well, mixed by brief shaking, incubated at 25° C. for 2 hr and fluorescence was measured on an EnVision Plate Reader. The 665 nm/615 nm ratio was calculated from EnVision raw data. Data were normalized using whole-plate averages of “positive” and “negative” readings. A four-parameter “log[inhibitor] vs. response” curve was fitted using GraphPad Prism 7.0.

SMILES	IC50 [1]	IC50 at 72 h [2]	IC50 [3]	IC50 ([2]; 72 hr)
Cc1sc2c(c1C)C(c1ccc(Cl)cc1)=N[C@@H](CC(=O)N1CCC(CN3CCN(c4ccc(-n5c(O)nnc5-c5cc(C(C)C)c(O)cc5O)cc4)CC3)CC1)c1nnc(C)n1-2 [Compound 41, (S)-2-(4-(4-chlorophenyl)-2,3,9-trimethyl-6H-thieno[3,2-f][1,2,4]triazolo[4,3-a][1,4]diazepin-6-yl)-1-(4-((4-(4-(3-(2,4-dihydroxy-5-isopropylphenyl)-5-hydroxy-4H-1,2,4-triazol-4-yl)phenyl)piperazin-1-yl)methyl)piperidin-1-yl)ethanone]	100 to 1000 nM	< 100 nM	100 to 1000 nM	–
CCc1cc(-c2nnc(C(=O)NCC(F)(F)F)n2-c2ccc(CC3CCN(CC4CCN(C(=O)C[C@@H]5N=C(c6ccc(Cl)cc6)c6c(sc(C)c6C)-n6c(C)nnc65)CC4)CC3)cc2)c(O)cc1O [Compound 86, (S)-4-(4-((1-((1-(2-(4-(4-chlorophenyl)-2,3,9-trimethyl-6H-thieno[3,2-f][1,2,4]triazolo[4,3-a][1,4]diazepin-6-yl)acetyl)piperidin-4-yl)methyl)piperidin-4-yl)methyl)phenyl)-5-(5-ethyl-2,4-dihydroxyphenyl)-N-(2,2,2-trifluoroethyl)-4H-1,2,4-triazole-3-carboxamide, trifluoroacetic acid]	100 to 1000 nM	< 100 nM	100 to 1000 nM	–
Cc1sc2c(c1C)C(c1ccc(Cl)cc1)=N[C@@H](CC(=O)Nc1ccc(NC(=O)C3CCN(Cc4ccc(-n5c(O)nnc5-c5cc(C(C)C)c(O)cc5O)cc4)CC3)cc1)c1nnc(C)n1-2 [Compound 72, N-(4-(2-((6S)-4-(4-chlorophenyl)-2,3,9-trimethyl-6H-thieno[3,2-f][1,2,4]triazolo[4,3-a][1,4]diazepin-6-yl)acetamido)phenyl)-1-(4-(3-(2,4-dihydroxy-5-isopropylphenyl)-5-hydroxy-4H-1,2,4-triazol-4-yl)benzyl)piperidine-4-carboxamide, trifluoroacetic acid]	> 1000 nM	< 100 nM	> 1000 nM	–
Cc1sc2c(c1C)C(c1ccc(Cl)cc1)=N[C@@H](CC(=O)NCCc1ccc(-n3c(O)nnc3-c3cc(C(C)C)c(O)cc3O)cc1)c1nnc(C)n1-2 [Compound 39, 2-((6S)-4-(4-chlorophenyl)-2,3,9-trimethyl-6H-thieno[3,2-f][1,2,4]triazolo[4,3-a][1,4]diazepin-6-yl)-N-(4-(3-(2,4-dihydroxy-5-isopropylphenyl)-5-hydroxy-4H-1,2,4-triazol-4-yl)phenethyl)acetamide]	100 to 1000 nM	< 100 nM	100 to 1000 nM	–
Cc1sc2c(c1C)C(c1ccc(Cl)cc1)=N[C@@H](CC(=O)N1CCC(CN3CCN(Cc4ccc(-n5c(C(=O)NCCN6CCCCC6)nnc5-c5cc(C(C)C)c(O)cc5O)cc4)CC3)CC1)c1nnc(C)n1-2 [Compound 107, (S)-4-(4-((4-((1-(2-(4-(4-chlorophenyl)-2,3,9-trimethyl-6H-thieno[3,2-f][1,2,4]triazolo[4,3-a][1,4]diazepin-6-yl)acetyl)piperidin-4-yl)methyl)piperazin-1-yl)methyl)phenyl)-5-(2,4-dihydroxy-5-isopropylphenyl)-N-(2-(piperidin-1-yl)ethyl)-4H-1,2,4-triazole-3-carboxamide, trifluoroacetic acid]	100 to 1000 nM	< 100 nM	< 100 nM	–
Cc1sc2c(c1C)C(c1ccc(Cl)cc1)=N[C@@H](CC(=O)N(C)CCOc1ccc(CN(C)Cc3ccc(-n4c(O)nnc4-c4cc(C(C)C)c(O)cc4O)cc3)cc1)c1nnc(C)n1-2 [Compound 99, (S)-2-(4-(4-chlorophenyl)-2,3,9-trimethyl-6H-thieno[3,2-f][1,2,4]triazolo[4,3-a][1,4]diazepin-6-yl)-N-(2-(4-(((4-(3-(2,4-dihydroxy-5-isopropylphenyl)-5-hydroxy-4H-1,2,4-triazol-4-yl)benzyl)(methyl)amino)methyl)phenoxy)ethyl)-N-methylacetamide, formic acid]	100 to 1000 nM	< 100 nM	> 1000 nM	–
Cc1sc2c(c1C)C(c1ccc(Cl)cc1)=N[C@@H](CC(=O)NCc1ccc(-n3c(S)nnc3-c3cc(C(C)C)c(O)cc3O)cc1)c1nnc(C)n1-2 [Compound 28, (S)-2-(4-(4-chlorophenyl)-2,3,9-trimethyl-6H-thieno[3,2-f][1,2,4]triazolo[4,3-a][1,4]diazepin-6-yl)-N-(4-(3-(2,4-dihydroxy-5-isopropylphenyl)-5-mercapto-4H-1,2,4-triazol-4-yl)benzyl)acetamide]	100 to 1000 nM	100 to 1000 nM	100 to 1000 nM	–
Cc1sc2c(c1C)C(c1ccc(Cl)cc1)=N[C@@H](CC(=O)N1CCC(CN3CCN(Cc4ccc(-n5c(C(N)=O)nnc5-c5cc(C(C)C)c(O)cc5O)cc4)CC3)CC1)c1nnc(C)n1-2 [Compound 109, (S)-4-(4-((4-((1-(2-(4-(4-chlorophenyl)-2,3,9-trimethyl-6H-thieno[3,2-f][1,2,4]triazolo[4,3-a][1,4]diazepin-6-yl)acetyl)piperidin-4-yl)methyl)piperazin-1-yl)methyl)phenyl)-5-(2,4-dihydroxy-5-isopropylphenyl)-4H-1,2,4-triazole-3-carboxamide, trifluoroacetic acid]	100 to 1000 nM	< 100 nM	< 100 nM	–
CCc1cc(-c2nnc(C(=O)NCCN3CCCCC3)n2-c2ccc(CN3CCN(CC4CCN(C(=O)C[C@@H]5N=C(c6ccc(Cl)cc6)c6c(sc(C)c6C)-n6c(C)nnc65)CC4)CC3)cc2)c(O)cc1O [Compound 117, (S)-4-(4-((4-((1-(2-(4-(4-chlorophenyl)-2,3,9-trimethyl-6H-thieno[3,2-f][1,2,4]triazolo[4,3-a][1,4]diazepin-6-yl)acetyl)piperidin-4-yl)methyl)piperazin-1-yl)methyl)phenyl)-5-(5-ethyl-2,4-dihydroxyphenyl)-N-(2-(piperidin-1-yl)ethyl)-4H-1,2,4-triazole-3-carboxamide, trifluoroacetic acid]	100 to 1000 nM	< 100 nM	< 100 nM	–
CCc1cc(-c2nnc(C(=O)NCC(F)(F)F)n2-c2ccc(CC3CCN(Cc4ccc(CNC(=O)C[C@@H]5N=C(c6ccc(Cl)cc6)c6c(sc(C)c6C)-n6c(C)nnc65)cc4)CC3)cc2)c(O)cc1O [Compound 91, (S)-4-(4-((1-(4-((2-(4-(4-chlorophenyl)-2,3,9-trimethyl-6H-thieno[3,2-f][1,2,4]triazolo[4,3-a][1,4]diazepin-6-yl)acetamido)methyl)benzyl)piperidin-4-yl)methyl)phenyl)-5-(5-ethyl-2,4-dihydroxyphenyl)-N-(2,2,2-trifluoroethyl)-4H-1,2,4-triazole-3-carboxamide, trifluoroacetic acid]	100 to 1000 nM	< 100 nM	100 to 1000 nM	–
COc1cccc(-c2cc(C(=O)Nc3ccc(-c4ccc(OC5CCN(CC[C@@H]6N=C(c7ccc(Cl)cc7)c7c(sc(C)c7C)-n7c(C)nnc76)CC5)cc4OCCN(C)C)cc3)ccc2OC)c1 [Compound 140]	> 1000 nM	–	> 1000 nM	> 1000 nM
Cc1nn(-c2ccc(C(N)=O)c(NCCOCCN3CCN(C(=O)C[C@@H]4N=C(c5ccc(Cl)cc5)c5c(sc(C)c5C)-n5c(C)nnc54)CC3)c2)c2c1C(=O)CC(C)(C)C2 [Compound 24, 2-((2-(2-(4-(2-((6S)-4-(4-chlorophenyl)-2,3,9-trimethyl-6H-thieno[3,2-f][1,2,4]triazolo[4,3-a][1,4]diazepin-6-yl)acetyl)piperazin-1-yl)ethoxy)ethyl)amino)-4-(3,6,6-trimethyl-4-oxo-4,5,6,7-tetrahydro-1H-indazol-1-yl)benzamide]	> 1000 nM	100 to 1000 nM	> 1000 nM	–
Cc1sc2c(c1C)C(c1ccc(Cl)cc1)=N[C@@H](CC(=O)N1CCC(CN3CCN(Cc4ccc(-n5c(C(=O)NC(C)C)nnc5-c5ccc(O)cc5O)cc4)CC3)CC1)c1nnc(C)n1-2 [Compound 119, (S)-4-(4-((4-((1-(2-(4-(4-chlorophenyl)-2,3,9-trimethyl-6H-thieno[3,2-f][1,2,4]triazolo[4,3-a][1,4]diazepin-6-yl)acetyl)piperidin-4-yl)methyl)piperazin-1-yl)methyl)phenyl)-5-(2,4-dihydroxyphenyl)-N-isopropyl-4H-1,2,4-triazole-3-carboxamide, trifluoroacetic acid]	100 to 1000 nM	< 100 nM	< 100 nM	–
